Assay results: patent US12090146B2, “Substituted-pyridinyl compounds and uses thereof” (Bionomics Limited, priority 2018, dated 2024)

Columns and labels:
hKv3.1 = target: T1, hKv3.1 (Homo sapiens, UniProt P48547); test: Automated patch clamp (Patchliner) whole-cell electrophysiology, Kv3.1; format: cell-based; details: 10 μM compound, CHO-K1 cells stably expressing hKv3.1; for Kv3.1 Activity at 10 μM Potentiation (%): % potentiation of peak current at −10 mV voltage step vs vehicle; for Kv3.1 Activity at 10 μM Voltage Shift (mV): voltage shift of the IV curve at V1/2
T1 construct: expressed in transfected cells
T1 sequence (P48547 1-511): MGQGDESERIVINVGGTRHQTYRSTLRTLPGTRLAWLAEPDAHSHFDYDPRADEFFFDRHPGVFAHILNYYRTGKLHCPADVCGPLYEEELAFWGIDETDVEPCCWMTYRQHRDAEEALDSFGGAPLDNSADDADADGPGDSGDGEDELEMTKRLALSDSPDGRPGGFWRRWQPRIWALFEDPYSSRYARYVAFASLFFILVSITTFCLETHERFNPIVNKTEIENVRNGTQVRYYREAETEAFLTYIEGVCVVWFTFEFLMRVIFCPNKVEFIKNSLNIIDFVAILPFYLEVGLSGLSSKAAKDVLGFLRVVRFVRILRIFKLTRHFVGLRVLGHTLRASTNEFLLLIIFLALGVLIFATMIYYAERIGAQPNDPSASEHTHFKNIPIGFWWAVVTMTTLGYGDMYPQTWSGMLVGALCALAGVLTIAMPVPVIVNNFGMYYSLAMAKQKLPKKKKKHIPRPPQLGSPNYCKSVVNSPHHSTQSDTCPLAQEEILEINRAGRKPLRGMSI
Procedure: (§1) hKv3.1, hKv3.2, hKv3.3, and hKv3.4 were stably expressed in CHO-K1 (Chinese hamster ovary) cells and kept under constant antibiotic selection. For in vitro assays, cells were maintained in appropriate growth medium at 37° C. and 5% CO2 in a humidified incubator.
(§2) hKv3.X expressing cells were plated in T-25 flasks for 3-4 days at 37° C. (no selection antibiotic) prior to use and grown to 80% confluence. Cells were washed twice with PBS (calcium and magnesium free) and detached with a 5-minute treatment at 37° C. with 2-3 mls of Accutase®. Cells were collected, and flask was washed in CHO-SFM II media (Life Technologies Gibco), centrifuged for 2 minutes at ˜110×g and resuspended to obtain a single cell suspension of ˜2-3×10^6 cells/ml.
(§3) The intracellular solution contained the following (in mM): KCl 50, NaCl 10, KF 60, EGTA 20, HEPES 10, adjusted to pH 7.2 with KOH and an osmolarity of 285 mOsmol. Seal enhancer was purchased from Nanion (80 mM NaCl, 3 mM KCl, 10 mM MgCl2, 35 mM CaCl2), 10 mM HEPES, pH7.4, 298 mOsmol. The external solution contained (in mM): NaCl 140, KCl 4, CaCl2) 2, MgCl2 1, HEPES 10, Glucose 5, adjusted to pH7.4 and an osmolarity of 298 mOsmol.
(§4) All compounds were initially tested at 10 uM at a final DMSO concentration of 0.33%. Compounds were dissolved in dimethylsulfoxide (DMSO) at a stock concentration of 30 mM. The compound was further diluted 1:10 to give a stock concentration of 3 mM in DMSO. The final assay solution was diluted 1:300 in External solution to give a final concentration of 10 uM. For the DMSO Control Buffer 30 uL of DMSO was added to 10 mL buffer.
(§5) All electrophysiological recordings were performed at ambient temperature (21-23° C.) using automated patch clamp (Patchliner, Nanion Technologies GmbH) in the whole-cell configuration.
(§6) Cell membrane potentials were held at −80 mV, and currents were evoked by voltage steps (1000 ms duration) from −60 to +60 mV in 10 mV increments. This was performed first with vehicle (0.33% DMSO) and then with 10 uM compound, after a 3-minute incubation period. Data was taken from 4 cells per assay.
(§7) The recordings were analysed and selected using peak current amplitude (>100 pA at the −10 mV voltage step) in the absence of compound to eliminate unsuitable cells from analysis. Peak current amplitude was measured and recorded for each voltage step and data was normalised to the maximum current at +60 mV. The normalised Kv3.x currents following addition of the compound were then compared with the currents recorded prior to compound addition (vehicle control). Positive modulation was determined as % potentiation at the voltage step of −10 mV=[current (cmpd)/current (veh)]*100−100. % potentiation ≥50% was considered acceptable. In addition, voltage shift of the IV curve at V1/2 was measured. V1/2 of ≥−5 mV was also considered acceptable. IV curves were plotted in GraphPad Prism (software version 6.0) and fitted with a Boltzmann equation, where V1/2 is the voltage at half-maximal activation.

hKv3.2 = target: T2, hKv3.2 (Homo sapiens, UniProt Q96PR1); test: Automated patch clamp (Patchliner) whole-cell electrophysiology, Kv3.2; format: cell-based; details: 10 μM compound, CHO-K1 cells stably expressing hKv3.2; for activation at 10 µM: % potentiation of peak current at −10 mV voltage step vs vehicle; for Kv3.2 Activity at 10 μM Voltage Shift (mV): voltage shift of the IV curve at V1/2
T2 construct: expressed in transfected cells
T2 sequence (Q96PR1 1-638): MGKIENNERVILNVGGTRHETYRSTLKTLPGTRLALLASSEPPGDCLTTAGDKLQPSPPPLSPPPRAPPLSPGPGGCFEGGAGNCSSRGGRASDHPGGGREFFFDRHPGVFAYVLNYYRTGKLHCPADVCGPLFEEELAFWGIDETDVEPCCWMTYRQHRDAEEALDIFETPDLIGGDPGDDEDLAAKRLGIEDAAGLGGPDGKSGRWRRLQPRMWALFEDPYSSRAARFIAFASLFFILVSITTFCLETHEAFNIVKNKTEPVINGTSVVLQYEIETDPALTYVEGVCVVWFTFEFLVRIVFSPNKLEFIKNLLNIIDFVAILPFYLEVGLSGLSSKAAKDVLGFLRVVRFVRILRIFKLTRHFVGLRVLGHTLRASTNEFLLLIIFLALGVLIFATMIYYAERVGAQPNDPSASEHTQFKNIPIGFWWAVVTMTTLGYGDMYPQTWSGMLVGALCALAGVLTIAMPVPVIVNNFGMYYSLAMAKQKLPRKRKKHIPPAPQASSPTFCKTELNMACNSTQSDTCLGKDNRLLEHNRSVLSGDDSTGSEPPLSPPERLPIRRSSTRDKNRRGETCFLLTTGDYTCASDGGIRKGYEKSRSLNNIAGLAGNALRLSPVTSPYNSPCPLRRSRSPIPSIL
Procedure: as §1, §2, §3, §4, §5, §6, §7

Structure (SMILES): COc1cc(Oc2cc(N3C(=O)NC(C)(C)C3=O)ccn2)ccc1C [Example 1, 3-[2-(3-methoxy-4-methyl-phenoxy)-4-pyridyl]-5,5-dimethyl-imidazolidine-2,4-dione]
- Kv3.1 Activity at 10 μM Potentiation (%) (hKv3.1): 53%
- Kv3.1 Activity at 10 μM Voltage Shift (mV) (hKv3.1): −2.9 mV
- activation at 10 µM (hKv3.2): 21%
- Kv3.2 Activity at 10 μM Voltage Shift (mV) (hKv3.2): −1.23 mV

Structure (SMILES): COc1cc(Oc2cncc(N3C(=O)NC(C)(C)C3=O)c2)ccc1C [Example 39, 3-[5-(3-methoxy-4-methyl-phenoxy)-3-pyridyl]-5,5-dimethyl-imidazolidine-2,4-dione]
- Kv3.1 Activity at 10 μM Potentiation (%) (hKv3.1): 25%
- Kv3.1 Activity at 10 μM Voltage Shift (mV) (hKv3.1): −2.77 mV
- activation at 10 µM (hKv3.2): 31%
- Kv3.2 Activity at 10 μM Voltage Shift (mV) (hKv3.2): −3.78 mV

Structure (SMILES): CC[C@H]1NC(=O)N(c2cc(Oc3ccc(C)c(OC)c3)ccn2)C1=O [Example 41, (5R)-5-ethyl-3-[4-(3-methoxy-4-methyl-phenoxy)-2-pyridyl]imidazolidine-2,4-dione]
- Kv3.1 Activity at 10 μM Potentiation (%) (hKv3.1): 67%
- Kv3.1 Activity at 10 μM Voltage Shift (mV) (hKv3.1): −4.46 mV
- activation at 10 µM (hKv3.2): 53%
- Kv3.2 Activity at 10 μM Voltage Shift (mV) (hKv3.2): −3.77 mV

Structure (SMILES): O=C1NC2(CCCCC2)C(=O)N1c1ccnc(Oc2ccc3c(c2)OCO3)c1 [Example 35, 3-[2-(1,3-benzodioxol-5-yloxy)-4-pyridyl]-1,3-diazaspiro[4.5]decane-2,4-dione]
- Kv3.1 Activity at 10 μM Potentiation (%) (hKv3.1): 41%
- Kv3.1 Activity at 10 μM Voltage Shift (mV) (hKv3.1): −3.4 mV
- activation at 10 µM (hKv3.2): 55%
- Kv3.2 Activity at 10 μM Voltage Shift (mV) (hKv3.2): −3.73 mV

Structure (SMILES): COc1cc(Oc2cc(N3C(=O)NC(C)(C)C3=O)ccn2)ccc1C(F)(F)F [Example 4, 3-[2-[3-methoxy-4-(trifluoromethyl)phenoxy]-4-pyridyl]-5,5-dimethyl-imidazolidine-2,4-dione]
- Kv3.1 Activity at 10 μM Potentiation (%) (hKv3.1): 36%
- Kv3.1 Activity at 10 μM Voltage Shift (mV) (hKv3.1): −5.13 mV
- activation at 10 µM (hKv3.2): 14%
- Kv3.2 Activity at 10 μM Voltage Shift (mV) (hKv3.2): −4.12 mV

Structure (SMILES): CC[C@@]1(C)NC(=O)N(c2cc(Oc3ccc(C)c(OC)c3)ccn2)C1=O [Example 45, (5R)-5-ethyl-3-[4-(3-methoxy-4-methyl-phenoxy)-2-pyridyl]-5-methyl-imidazolidine-2,4-dione]
- Kv3.1 Activity at 10 μM Potentiation (%) (hKv3.1): 19%
- Kv3.1 Activity at 10 μM Voltage Shift (mV) (hKv3.1): −2.36 mV
- activation at 10 µM (hKv3.2): 61%
- Kv3.2 Activity at 10 μM Voltage Shift (mV) (hKv3.2): −6.69 mV

Structure (SMILES): COc1cc(Oc2ccnc(N3C(=O)NC(C)(C)C3=O)c2)ccc1C [Example 44, 3-[4-(3-methoxy-4-methyl-phenoxy)-2-pyridyl]-5,5-dimethyl-imidazolidine-2,4-dione]
- Kv3.1 Activity at 10 μM Potentiation (%) (hKv3.1): 45%
- Kv3.1 Activity at 10 μM Voltage Shift (mV) (hKv3.1): −3.03 mV
- activation at 10 µM (hKv3.2): 28%
- Kv3.2 Activity at 10 μM Voltage Shift (mV) (hKv3.2): −2.81 mV

Structure (SMILES): COc1cc(Oc2cccc(N3C(=O)NC4(CCCCC4)C3=O)n2)ccc1C [Example 75, 3-[6-(3-methoxy-4-methyl-phenoxy)-2-pyridyl]-1,3-diazaspiro[4.5]decane-2,4-dione]
- Kv3.1 Activity at 10 μM Potentiation (%) (hKv3.1): 15%
- Kv3.1 Activity at 10 μM Voltage Shift (mV) (hKv3.1): −4.01 mV
- activation at 10 µM (hKv3.2): 5%
- Kv3.2 Activity at 10 μM Voltage Shift (mV) (hKv3.2): 0 mV

Structure (SMILES): COc1cc(Oc2cc(N3C(=O)NC4(CCN(C)CC4)C3=O)ccn2)ccc1C [Example 30, 3-[2-(3-methoxy-4-methyl-phenoxy)-4-pyridyl]-8-methyl-1,3,8-triazaspiro[4.5]decane-2,4-dione]
- Kv3.1 Activity at 10 μM Potentiation (%) (hKv3.1): 26%
- Kv3.1 Activity at 10 μM Voltage Shift (mV) (hKv3.1): −0.83 mV
- activation at 10 µM (hKv3.2): -4%
- Kv3.2 Activity at 10 μM Voltage Shift (mV) (hKv3.2): 2.06 mV

Structure (SMILES): CC[C@@]1(C)NC(=O)N(c2ccnc(Oc3ccc4c(c3)OC(F)(F)O4)c2)C1=O [Example 16, (5R)-3-[2-[(2,2-difluoro-1,3-benzodioxol-5-yl)oxy]-4-pyridyl]-5-ethyl-5-methyl-imidazolidine-2,4-dione]
- activation at 10 µM (hKv3.2): 47%
- Kv3.2 Activity at 10 μM Voltage Shift (mV) (hKv3.2): −3.63 mV

Structure (SMILES): COc1cc(Oc2cc(N3C(=O)NC(C)(C)C3=O)ccn2)ccc1F [Example 6, 3-[2-[3-methoxy-4-fluorophenoxy]-4-pyridyl]-5,5-dimethyl-imidazolidine-2,4-dione]
- activation at 10 µM (hKv3.2): 25%
- Kv3.2 Activity at 10 μM Voltage Shift (mV) (hKv3.2): −3.18 mV

Structure (SMILES): COc1cc(Oc2cc(N3C(=O)NC4(CCCCC4)C3=O)ccn2)ccc1C [Example 24, 3-[2-(3-methoxy-4-methyl-phenoxy)-4-pyridyl]-1,3-diazaspiro[4.5]decane-2,4-dione]
- activation at 10 µM (hKv3.2): 42%
- Kv3.2 Activity at 10 μM Voltage Shift (mV) (hKv3.2): −5.52 mV

Structure (SMILES): CC[C@@]1(C)NC(=O)N(c2ccc(F)c(Oc3ccc(C)c(OC)c3)n2)C1=O [Example 89, (5R)-5-ethyl-3-[5-fluoro-6-(3-methoxy-4-methyl-phenoxy)-2-pyridyl]-5-methyl-imidazolidine-2,4-dione]
- activation at 10 µM (hKv3.2): 28%
- Kv3.2 Activity at 10 μM Voltage Shift (mV) (hKv3.2): −2.58 mV

Structure (SMILES): CC[C@@]1(C)NC(=O)N(c2ccnc(Oc3ccc(Cl)c(OC)c3)c2)C1=O [Example 15, (5R)-5-ethyl-3-[2-(3-methoxy-4-chloro-phenoxy)-4-pyridyl]-5-methyl-imidazolidine-2,4-dione]
- Kv3.1 Activity at 10 μM Potentiation (%) (hKv3.1): 3%
- Kv3.1 Activity at 10 μM Voltage Shift (mV) (hKv3.1): −0.9 mV

Structure (SMILES): CC[C@@]1(C)NC(=O)N(c2cccc(Oc3ccc4c(c3)CCC4)n2)C1=O [Example 61, (5R)-5-ethyl-3-(6-indan-5-yloxy-2-pyridyl)-5-methyl-imidazolidine-2,4-dione]
- Kv3.1 Activity at 10 μM Potentiation (%) (hKv3.1): 46%
- Kv3.1 Activity at 10 μM Voltage Shift (mV) (hKv3.1): −3.55 mV

Structure (SMILES): CC(C)c1cc(Oc2cccc(N3C(=O)NC(C)(C)C3=O)n2)ccc1C#N [Example 77, 4-[[6-(4,4-dimethyl-2,5-dioxo-imidazolidin-1-yl)-2-pyridyl]oxy]-2-isopropyl-benzonitrile]
- Kv3.1 Activity at 10 μM Potentiation (%) (hKv3.1): 12%
- Kv3.1 Activity at 10 μM Voltage Shift (mV) (hKv3.1): −0.95 mV

Structure (SMILES): COc1cc(Oc2cccc(N3C(=O)NC(C)(C)C3=O)n2)ccc1C [Example 73, 3-[6-(3-methoxy-4-methyl-phenoxy)-2-pyridyl]-5,5-dimethyl-imidazolidine-2,4-dione]
- Kv3.1 Activity at 10 μM Potentiation (%) (hKv3.1): 26%
- Kv3.1 Activity at 10 μM Voltage Shift (mV) (hKv3.1): −1.61 mV
